Among the data in US9458176B2, “Tetrahydroimidazo(1,5-D)[1,4]oxazepine derivative” (Eisai R&D Management Co., Ltd., priority 2013, dated 2016) are IC50 values, retold here.

Sequence of human mGluR2 (Q14416 19-872): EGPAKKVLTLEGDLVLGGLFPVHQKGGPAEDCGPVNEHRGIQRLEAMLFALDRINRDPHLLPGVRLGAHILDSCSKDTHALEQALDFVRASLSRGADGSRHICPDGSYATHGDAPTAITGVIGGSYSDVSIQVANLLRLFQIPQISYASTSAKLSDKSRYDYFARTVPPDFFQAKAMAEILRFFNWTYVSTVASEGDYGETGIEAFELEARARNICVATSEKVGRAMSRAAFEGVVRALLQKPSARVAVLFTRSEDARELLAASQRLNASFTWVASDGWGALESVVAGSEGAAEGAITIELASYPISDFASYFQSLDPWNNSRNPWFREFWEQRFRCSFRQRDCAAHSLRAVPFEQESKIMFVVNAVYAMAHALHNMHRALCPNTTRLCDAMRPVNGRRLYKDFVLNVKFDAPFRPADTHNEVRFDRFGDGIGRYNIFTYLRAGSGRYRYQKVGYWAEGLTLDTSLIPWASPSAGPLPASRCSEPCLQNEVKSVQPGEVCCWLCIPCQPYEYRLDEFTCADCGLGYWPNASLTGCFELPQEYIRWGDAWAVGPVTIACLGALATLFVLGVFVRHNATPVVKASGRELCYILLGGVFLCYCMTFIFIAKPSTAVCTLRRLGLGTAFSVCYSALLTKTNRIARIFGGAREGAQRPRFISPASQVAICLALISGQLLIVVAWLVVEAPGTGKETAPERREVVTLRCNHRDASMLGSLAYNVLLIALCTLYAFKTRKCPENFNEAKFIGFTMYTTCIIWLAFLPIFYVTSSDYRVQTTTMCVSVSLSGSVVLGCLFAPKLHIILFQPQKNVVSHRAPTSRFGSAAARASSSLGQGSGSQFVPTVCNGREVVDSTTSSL

The target in the assay is human mGluR2 (Homo sapiens (Human), UniProt Q14416). Briefly: [35S]GTPγS binding assay (Affinity to mGluR2). The format is biochemical. The conditions noted are these: cell membrane fraction of HEK293 cells stably expressing human mGluR2; glutamic acid 10 μM. The method, then:
(Preparation of Cell Membrane Fraction of HEK293 Cells Stably Expressing Human Metabotropic Glutamate Receptor 2 (mGluR2))
HEK293 cells stably expressing human mGluR2 and human glutamate transporter SLC1A3 were cultured in a Dulbecco's modified Eagle's medium with 10% fetal bovine serum (50 units/mL of penicillin, 50 μg/mL of streptomycin, 60 μg/mL of geneticin, 400 μg/mL of hygromycin B and 2 mM of glutamine) at 37° C. under 5% CO2. Confluent cell cultures were washed twice with PBS(−), and then scraped off with a cell scraper, and subjected to centrifugal separation at 4° C. and 1500 rpm for 5 minutes for collecting cells. The centrifuged sediment (cell pellet) was homogenized in a 20 mM HEPES buffer containing 10 mM EDTA (pH 7.4) by using sonicator and centrifuged at 4° C. and 1500×g for 30 minutes. The supernatant (soluble fraction) was subjected to the centrifugal separation at 4° C. and 40,000×g for 30 minutes, and thus, insoluble fraction was obtained. After additional centrifugally washing the obtained fraction with 20 mM HEPES buffer containing 10 mM EDTA (pH 7.4), the pellet was centrifugally suspended with a 20 mM HEPES buffer containing 0.1 mM EDTA, and the cell membrane fraction was obtained by the centrifugal separation at 4° C. and 40,000×g for 30 minutes. The thus obtained cell membrane fraction was suspended in a 20 mM HEPES buffer containing 0.1 mM EDTA in a protein concentration of 3 mg/mL, which was stored at −80° C.
([^35S]GTPγS Binding Assay)
The frozen cell membrane fraction prepared as described above was thawed before use, and the resultant was diluted with a buffer for a binding assay (final concentrations: 20 mM HEPES, 100 mM NaCl, 1 mM MgCl2, 3 μM GDP, 300 μg/mL saponin, 0.1% BSA). The compound of each example was added to a cell membrane fraction containing 1.8 to 3 μg/assay of membrane protein on a plate, followed by incubation at room temperature for 30 minutes. Thereafter, with glutamic acid (in a final concentration of 10 μM) added thereto, incubation was performed at room temperature for 15 minutes, and thereafter, [^35S]GTPγS (in a final concentration of 0.8 kBq) and 588 μg WGA-SPA beads were added thereto, followed by incubation at room temperature for 1 hour. After the incubation, the plate was subjected to the centrifugal separation at 2,500 rpm and room temperature, and then, membrane cell binding radioactivity was measured with a top count.
A [^35S]GTPγS binding amount obtained by performing the above-described reaction in the absence of glutamic acid was defined as nonspecific binding, and a difference from a [^35S]GTPγS binding amount obtained in the presence of glutamic acid was defined as specific binding. On the basis of ratios of inhibiting the specific binding at various concentrations of the compounds of the respective examples, inhibition curves were obtained. Concentrations of the compounds of the respective examples at which the specific [^35S]GTPγS binding amount was suppressed by 50% (IC50 values) were calculated on the basis of the inhibition curves and shown in Tables 8 and 9.
By IC50 is commonly meant the concentration that gives 50% inhibition. Consider `Cc1cc(-c2nc(-c3ccc(OCC(F)(F)F)c(F)c3)n3c2CCOCC3)cc(C)n1` [Example 2, 1-(2,6-dimethylpyridin-4-yl)-3-(3-fluoro-4-(2,2,2-trifluoroethoxy)phenyl)-5,6,8,9-tetrahydroimidazo[1,5-d][1,4]oxazepine], for which the IC50 amounted to 97.4 nM.

Regarding `Cc1cc(-c2nc(-c3ccc(Cl)c(OCC(F)(F)F)c3)n3c2CCOCC3)cc(C)n1` [Example 3, 3-(4-chloro-3-(2,2,2-trifluoroethoxy)phenyl)-1-(2,6-dimethylpyridin-4-yl)-5,6,8,9-tetrahydroimidazo[1,5-d][1,4]oxazepine], the IC50 stood at 13.9 nM.

As to `COc1cc(-c2nc(-c3cc(C)nc(C)c3)c3n2CCOCC3)ccc1Br` [Example 4, 3-(4-bromo-3-methoxyphenyl)-1-(2,6-dimethylpyridin-4-yl)-5,6,8,9-tetrahydroimidazo[1,5-d][1,4]oxazepine], the IC50 amounted to 31.9 nM.

Compound `Cc1cc(-c2nc(-c3ccc(F)c(OCCF)c3)n3c2CCO[C@H](C)C3)cc(C)n1` [Example 5, (R)-1-(2,6-dimethylpyridin-4-yl)-3-(4-fluoro-3-(2-fluoroethoxy)phenyl)-6-methyl-5,6,8,9-tetrahydroimidazo[1,5-d][1,4]oxazepine] registered an IC50 of 26.5 nM.

`Cc1cc(-c2nc(-c3ccc(F)c(OCC4CC4)c3)n3c2CCO[C@H](C)C3)cc(C)n1` [Example 6, (R)-3-(3-cyclopropylmethoxy-4-fluorophenyl)-1-(2,6-dimethylpyridin-4-yl)-6-methyl-5,6,8,9-tetrahydroimidazo[1,5-d][1,4]oxazepine] came in with an IC50 of 13 nM.

Take `COc1cc(-c2nc(-c3ccnc(C)c3)c3n2C[C@@H](C)OCC3)ccc1C(F)(F)F` [Example 8, (R)-3-(3-methoxy-4-(trifluoromethyl)phenyl)-6-methyl-1-(2-methylpyridin-4-yl)-5,6,8,9-tetrahydroimidazo[1,5-d][1,4]oxazepine]: the IC50 was found to be 13.2 nM.

`Cc1cc(-c2nc(-c3ccc(OC(F)(F)F)c(C)c3)n3c2CCO[C@H](C)C3)ccn1` [Example 9, (R)-6-methyl-3-(3-methyl-4-(trifluoromethoxy)phenyl)-1-(2-methylpyridin-4-yl)-5,6,8,9-tetrahydroimidazo[1,5-d][1,4]oxazepine] displayed a half-inhibitory concentration (IC50) of 1.9 nM.

On to `COc1cc(-c2nc(-c3ccnc(CF)c3)c3n2C[C@@H](C)OCC3)ccc1Cl` [Example 12, (R)-3-(4-chloro-3-methoxyphenyl)-1-(2-(fluoromethyl)pyridin-4-yl)-6-methyl-5,6,8,9-tetrahydroimidazo[1,5-d][1,4]oxazepine], for which the IC50 was 28.3 nM.

In the case of `COc1cc(-c2nc(-c3cc(C)nc(CF)c3)c3n2C[C@@H](C)OCC3)ccc1Cl` [Example 13, (R)-3-(4-chloro-3-methoxyphenyl)-1-(2-(fluoromethyl)-6-methylpyridin-4-yl)-6-methyl-5,6,8,9-tetrahydroimidazo[1,5-d][1,4]oxazepine], the IC50 is 5.7 nM.

In turn, `Cc1cc(-c2nc(-c3ccc(OC(F)F)c(C)c3)n3c2CCO[C@H](C)C3)ccn1` [Example 15, (R)-3-(4-(difluoromethoxy)-3-methylphenyl)-6-methyl-1-(2-methylpyridin-4-yl)-5,6,8,9-tetrahydroimidazo[1,5-d][1,4]oxazepine] gave an IC50 of 7.4 nM.

Compound `COc1cc(-c2nc(-c3cc(C)nc(C)c3)c3n2C[C@@H](CF)OCC3)ccc1OC(F)(F)F` [Example 16, (S)-1-(2,6-dimethylpyridin-4-yl)-6-(fluoromethyl)-3-(3-methoxy-4-(trifluoromethoxy)phenyl)-5,6,8,9-tetrahydroimidazo[1,5-d][1,4]oxazepine] showed an IC50 of 2.7 nM.

In the case of `COc1cc(-c2nc(-c3ccnc(C)c3)c3n2C[C@@H](CF)OCC3)ccc1OC(F)(F)F` [Example 17, (S)-6-(fluoromethyl)-3-(3-methoxy-4-(trifluoromethoxy)phenyl)-1-(2-methylpyridin-4-yl)-5,6,8,9-tetrahydroimidazo[1,5-d][1,4]oxazepine], the IC50 is 3.8 nM.

`COc1ccc(-c2nc(-c3cc(C)nc(C)c3)c3n2C[C@@H](C)OCC3)cc1C` [Example 18, (R)-1-(2,6-dimethylpyridin-4-yl)-3-(4-methoxy-3-methylphenyl)-6-methyl-5,6,8,9-tetrahydroimidazo[1,5-d][1,4]oxazepine] returned an IC50 of 12.3 nM.

Compound `Cc1cc(-c2nc(-c3ccc(OC4CC4)c(Cl)c3)n3c2CCO[C@H](C)C3)cc(C)n1` [Example 19, (R)-3-(3-chloro-4-cyclopropoxyphenyl)-1-(2,6-dimethylpyridin-4-yl)-6-methyl-5,6,8,9-tetrahydroimidazo[1,5-d][1,4]oxazepine] yielded an IC50 of 3 nM.

In turn, `Cc1cc(-c2nc(-c3ccc(OC4CC4)c(C)c3)n3c2CCO[C@H](C)C3)cc(C)n1` [Example 20, (R)-3-(4-cyclopropoxy-3-methylphenyl)-1-(2,6-dimethylpyridin-4-yl)-6-methyl-5,6,8,9-tetrahydroimidazo[1,5-d][1,4]oxazepine] displayed an IC50 of 3.4 nM.

Compound `Cc1cc(-c2nc(-c3ccc(OC(F)F)c(Cl)c3)n3c2CCO[C@H](C)C3)ccn1` [Example 21, (R)-3-(3-chloro-4-(difluoromethoxy)phenyl)-6-methyl-1-(2-methylpyridin-4-yl)-5,6,8,9-tetrahydroimidazo[1,5-d][1,4]oxazepine] displayed an IC50 of 7.5 nM.

`Cc1cc(-c2nc(-c3ccc(OC4CC4)c(C)c3)n3c2CCO[C@H](CF)C3)cc(C)n1` [Example 22, (S)-3-(4-cyclopropoxy-3-methylphenyl)-1-(2,6-dimethylpyridin-4-yl)-6-(fluoromethyl)-5,6,8,9-tetrahydroimidazo[1,5-d][1,4]oxazepine] returned an IC50 of 4.1 nM.

`COc1cc(-c2nc(-c3cc(C)nc(C)c3)c3n2C[C@@H](C)OCC3)ccc1C(C)(F)F` [Example 23, (R)-3-(4-(1,1-difluoroethyl)-3-methoxyphenyl)-1-(2,6-dimethylpyridin-4-yl)-6-methyl-5,6,8,9-tetrahydroimidazo[1,5-d][1,4]oxazepine] displayed an IC50 of 19.4 nM.

In turn, `COc1cc(-c2nc(-c3cc(C)nc(C)c3)c3n2C[C@@H](C)OCC3)ccc1OC(F)(F)F` [Example 25, (R)-1-(2,6-dimethylpyridin-4-yl)-3-(3-methoxy-4-(trifluoromethoxy)phenyl)-6-methyl-5,6,8,9-tetrahydroimidazo[1,5-d][1,4]oxazepine] showed an IC50 of 3.2 nM.

Regarding `COc1cc(-c2nc(-c3ccnc(C)c3)c3n2C[C@@H](CF)OCC3)ccc1Cl` [Example 26, (S)-3-(4-chloro-3-methoxyphenyl)-6-fluoromethyl-1-(2-methylpyridin-4-yl)-5,6,8,9-tetrahydroimidazo[1,5-d][1,4]oxazepine], the IC50 was determined as 13.5 nM.

In the case of `Cc1cc(-c2nc(-c3ccc(OC(F)F)c(C)c3)n3c2CCO[C@H](CF)C3)cc(C)n1` [Example 27, (S)-3-(4-(difluoromethoxy)-3-methylphenyl)-1-(2,6-dimethylpyridin-4-yl)-6-(fluoromethyl)-5,6,8,9-tetrahydroimidazo[1,5-d][1,4]oxazepine], the IC50 was found to be 3.5 nM.

In the case of `COc1cc(-c2nc(-c3cc(C)nc(C)c3)c3n2C[C@@H](CF)OCC3)ccc1C(F)F` [Example 28, (S)-3-(4-(difluoromethyl)-3-methoxyphenyl)-1-(2,6-dimethylpyridin-4-yl)-6-(fluoromethyl)-5,6,8,9-tetrahydroimidazo[1,5-d][1,4]oxazepine], the IC50 is 16.2 nM.

Compound `COc1cc(-c2nc(-c3cc(C)nc(C)c3)c3n2C[C@@H](CF)OCC3)ccc1C(F)(F)F` [Example 29, (S)-1-(2,6-dimethylpyridin-4-yl)-6-(fluoromethyl)-3-(3-methoxy-4-(trifluoromethyl)phenyl)-5,6,8,9-tetrahydroimidazo[1,5-d][1,4]oxazepine] displayed a half-maximal inhibitory concentration (IC50) of 3.8 nM.

As to `COc1cc(-c2nc(-c3cc(C)nc(CF)c3)c3n2C[C@@H](C)OCC3)ccc1OC(F)(F)F` [Example 30, (R)-1-(2-(fluoromethyl)-6-methylpyridin-4-yl)-3-(3-methoxy-4-(trifluoromethoxy)phenyl)-6-methyl-5,6,8,9-tetrahydroimidazo[1,5-d][1,4]oxazepine], the IC50 was found to be 5.2 nM.
